How the values were obtained:
[1] = system: bone marrow-derived murine neutrophils; assay: ROS production (CFDA) by murine bone marrow neutrophils incubated with Aspergillus hyphae; type: cell-based, C57BL/6 mice; conditions: IL-6/23-stimulated, inhibitor 20 μM, FIG. 6C
Protocol: (§1) Murine and human neutrophils were incubated with p-STAT3 (20 μM Stattic or 20 μM INC424) or RORγt inhibitors (20 μM SR1001) for 2 h. Then the cells were stimulated with […] of rIL-6 and 2 μg/ml of rIL-23 for 3 h, washed, and 2×10^5 bone marrow-derived murine neutrophils or 10^5 human peripheral blood neutrophils, with or without recombinant IL-17A, were added to each well with growing hyphae. RPMI media was used as positive control (unimpaired growth), and PBS was used as a negative control (no growth (data not shown)). After 16 h the wells were washed with PBS and the dsRed fungal mass was quantified in a 96-well fluorometer at 550/600 nm excitation/emission filter (Synergy HT, Biotek).
(§2) In vitro ROS production measured by CFDA was previously described. Briefly, 100 μg/100 μl of A. fumigatus hyphal extract (AspHE) were incubated with 2×10^5 murine or human neutrophils. Neutrophils were treated for 1 h with 1 μM Carboxyfluorescein diacetate (H2CFDA (Sigma)), which will fluoresce following ROS oxidation. Neutrophils were collected and analyzed by flow cytometry. H2CFDA pulsed neutrophils that had not been incubated with AspHE were used to set the ROS histogram gate. The average mean intensity was calculated by Accuri flow software and graphed in Prism.

[2] = system: A. fumigatus hyphae; assay: In vitro fungal killing assay (hyphal coincubation) with murine neutrophils; type: cell-based, Aspergillus fumigatus; conditions: IL-6/23-stimulated, inhibitor 20 μM, FIG. 6D
Text: (§3) Aspergillus strains—For cornea infections and in vitro fungal killing assays, an RFP expressing strain of A. fumigatus (Af-dsRed) was used. This strain is gpdA promoter driven to constitutively express monomeric dsRed. For subcutaneous “priming” injections, heat-killed, swollen conidia Aspergillus fumigatus strain Af-BP was used. For the Aspergillus hyphal extract used in ROS assay, A. fumigatus strain Af-BP hyphae were pulverized in liquid nitrogen, filtered through a 30 μm pre-separation filter (Miltenyi Biotec) and protein measured by the BCA method (Pierce). Aspergillus hyphal extracts (AspHE) were stored at −20° C. and used at a final concentration of 1 mg/ml.
(§4) A hyphal coincubation assay was used to study the ability of murine and human neutrophils to inhibit A. fumigatus hyphal growth as described. Briefly, 12,500 A. fumigatus dsRed expressing conidia (strain Af-dsRed) per 200 μl Sabouraud dextrose media were added to wells of black-walled 96 well plates with an optically clear bottom (CoStar 3720). After 6 h, the conidia had germinated and the hyphae became adherent to the wells, at which time the medium was removed.
as §1

[3] = system: IL-17A; assay: IL-17A expression in IL-6/23-stimulated murine bone marrow neutrophils (qPCR, ELISA, intracellular flow cytometry); type: cell-based, C57BL/6 mice; conditions: discussion restatement, species not stated
Text: Total bone marrow-derived cells were isolated from mouse femurs and tibias by flushing with RPMI and an 18-gauge needle. Erythrocytes were lysed with 1× lysis buffer (eBioscience), and bone marrow cells were separated on a Percoll (Fisher) gradient by density centrifugation (52%, 69%, and 78%). Cells at the 69-78% interface were harvested, and neutrophil purity (>98%) confirmed by flow cytometry and Wright-Giemsa staining. IL-17A protein production was quantified by 2-site ELISA, according to the manufacturer's directions (R&D Biosciences). Murine or human neutrophils were suspended at a density of 10^6 cells/ml and incubated with […] of recombinant mouse or human IL-6 and 2 μg/ml IL-23 in RPMI, and the cells were maintained for 1-3 h at 37° C. in 5% CO2. Various inhibitors were used for assessing STAT3 activation. […] For the determination of RORγt-dependent signaling, SR1001 (20 μM; Sigma) was used, which inhibits RORγt binding to the IL-17 promoter site. All inhibitors were added to neutrophils 2 h prior to recombinant IL-6 and IL-23 stimulation. […] Ten corneas were pooled and analyzed by intracellular flow cytometry. […] Cells were analyzed using a C6 Accuri flow cytometer (BD). […] The SYBR green system (Applied Biosystems, Carlsbad, Calif.) was utilized for quantitative PCR (qPCR) using ABI Biosystems. […]

[4] = system: IL-17RC; assay: IL-17RC gene expression by qPCR in IL-6/23-stimulated murine neutrophils; type: cell-based; conditions: IL-6/23 1 h, FIG. 6A
Text: Total bone marrow-derived cells were isolated from mouse femurs and tibias by flushing with RPMI and an 18-gauge needle. Erythrocytes were lysed with 1× lysis buffer (eBioscience), and bone marrow cells were separated on a Percoll (Fisher) gradient by density centrifugation (52%, 69%, and 78%). Cells at the 69-78% interface were harvested, and neutrophil purity (>98%) confirmed by flow cytometry and Wright-Giemsa staining.
(§5) Murine or human neutrophils were suspended at a density of 10^6 cells/ml and incubated with […] of recombinant mouse or human IL-6 and 2 μg/ml IL-23 in RPMI, and the cells were maintained for 1-3 h at 37° C. in 5% CO2. Various inhibitors were used for assessing STAT3 activation. For STAT3, neutrophils were treated with either the STAT3-SH2 inhibitor, Stattic (20 μM) obtained from Tocris, or the JAK-1, 2 inhibitor, INC424, (aka Ruxolitinib; 20 μM (Selleck BioChem)). For the determination of RORγt-dependent signaling, SR1001 (20 μM; Sigma) was used, which inhibits RORγt binding to the IL-17 promoter site. All inhibitors were added to neutrophils 2 h prior to recombinant IL-6 and IL-23 stimulation.
(§6) Neutrophil and corneal cell RNA was extracted using the RNeasy mini kit according to the manufacturer's directions (Qiagen, Valencia, Calif.). The quality of RNA was checked by spectrophotometry, and only samples with a 260/280 ratio of 2.0 were used to generate cDNA. The SuperScript First Strand synthesis system (Invitrogen) was used to generate cDNA according to the manufacturer's directions.
(§7) The SYBR green system (Applied Biosystems, Carlsbad, Calif.) was utilized for quantitative PCR (qPCR) using ABI Biosystems. PCR products were then run on a 1% agarose gel, and visualized using ethidium bromide. PCR products were compared to Actb (encoding the β-actin gene) or GAPDH as the controls for gel loading.

[5] = system: A. fumigatus hyphae; assay: In vitro fungal killing assay (hyphal coincubation) with human neutrophils; type: cell-based, Aspergillus fumigatus; conditions: IL-6/23-stimulated, inhibitor 20 μM, FIG. 6F
Text: as §3, §4, §1

[6] = system: human peripheral blood neutrophils; assay: ROS production (CFDA) by human peripheral blood neutrophils incubated with Aspergillus hyphae; type: cell-based; conditions: IL-6/23-stimulated, inhibitor 20 μM, FIG. 6E
Protocol: as §1, §2

[7] = system: IL-17RC; assay: IL-17RC gene expression by qPCR in IL-6/23-stimulated human neutrophils; type: cell-based; conditions: IL-6/23 1 h, FIG. 6B
Protocol: Neutrophils were isolated from peripheral blood of healthy donors. Peripheral blood was incubated in 3% Dextran, and neutrophils isolated by Ficoll gradient centrifugation (Fisher Scientific), with neutrophil purity determined by staining with Wright-Giemsa.
as §5, §6, §7

CC(=O)Nc1nc(C)c(S(=O)(=O)Nc2ccc(C(O)(C(F)(F)F)C(F)(F)F)cc2)s1 [SR1001]
ROS production ([1]; plus rIL-17A): ROS production was increased | ROS production ([1]; without rIL-17A): not increased above the level produced by naïve neutrophils | hyphal killing activity ([2]; plus rIL-17A): enhanced hyphal killing activity was detected | hyphal growth (fluorescent fungal mass) ([2]; without rIL-17A): did not further impede hyphal growth | IL-17 production in stimulated neutrophils [3]: ablated | IL-17RC expression [4]: did not inhibit | fluorescent fungal mass ([5]; plus rhIL-17A): decreased fungal mass | fluorescent fungal mass ([5]; without rhIL-17A): no increase in ROS (FIG. 6E) or decrease in fluorescent fungal mass | ROS production ([6]; plus rhIL-17A): increased ROS | ROS production ([6]; without rhIL-17A): no increase in ROS | IL-17RC expression [7]: did not inhibit

N#CC[C@H](C1CCCC1)n1cc(-c2ncnc3[nH]ccc23)cn1 [INC424, Ruxolitinib]
IL-17RC expression [4]: did not inhibit | IL-17RC expression [7]: did not inhibit
